Measured values from US4254147A, “Pharmaceutical composition for total parenteral nutrition” (priority 1978, dated 1981).

How the values were obtained:
[1] = LD50 acute toxicity, rat (Litchfield and Wilcoxon method); conditions: in vivo
Source text: (§1) As known, carnitine contains an asimmetric atom and consequently exists in two stereoisomers. […] Thus, the LD50 in rats and mice assessed for various routes of administration according to the Litchfield and Wilcoxon method is as shown in the following Table A. (Litchfield, J. T., and Wilcoxon, F., J. Pharm. Exptl. Therap. 96, 99. 1949).

[2] = LD50 acute toxicity, mouse (Litchfield and Wilcoxon method); conditions: in vivo
Source text: as §1

[3] = Activity and toxicity comparison of carnitine isomers (in words); conditions: isomers of carnitine compared
Source text: as §1

[4] = Effective utilization of exogenous glycerides on daily carnitine dosing; assay type: in vivo, patient
Protocol: The dose of carnitine which is administered will be determined by the attending physician having regard to the age, weight and condition of the patient, using sound professional judgement. Although effective utilization of exogenous glycerides can be noticed at doses as low as from 30 to 50 mg/kg of body weight daily, a dose of from about 150 to about 200 mg/kg of body weight daily is preferred.

## C[N+](C)(C)C[C@@H](O)CC(=O)[O-] [D-carnitine]
[1]; sc
  LD50: 10000 mg/kg
[2]; sc
  LD50: 5400 mg/kg
[3]
  toxicity of the isomer: slightly more toxic

## C[N+](C)(C)CC(O)CC(=O)[O-] (stereo not shown) [carnitine]
[4]; Homo sapiens, daily carnitine dose, read-out: dose at which effective utilization of exogenous glycerides can be noticed
  minimal effective dose: 30 to 50 mg/kg/day
[4]; in vivo
  toxicity of carnitine: extremely low toxicity

## C[N+](C)(C)CC(O)CC(=O)[O-] (racemic) [D,L-carnitine]
[1]; iv
  LD50: 995 mg/kg
[2]; iv
  LD50: 610 mg/kg
[2]; sc
  LD50: 6000 mg/kg

## C[N+](C)(C)C[C@H](O)CC(=O)[O-] [L-carnitine]
[2]; sc
  LD50: 7000 mg/kg
[3]
  activity of the isomer: more active
